# Source: patent US20050287070A1, “Ligand-specific opening of a gated-porin channel in the outer membrane of living bacteria” (priority 1997, published 2005)
# Molecular target: T1, Escherichia coli ferric enterobactin receptor, FepA (FepAE280C) (Escherichia coli, UniProt P05825, E302C)
# T1 construct: expressed in transfected cells; host or cells: E. coli KDF541 (fepA, tonB+) carrying pFepAE280C; also KDF570 (fepA, tonB)
# Format: cell-based
# Experimental: Indicated at (A) are ESR analyses of MTSL-labeled bacteria expressing FepAE280C, KDF541(9) containing pITS449 of pFepAE280C was grown in LB medium and subcultured into T medium plus appropriate nutritional supplements at 1%. After 16 hours, bacteria were harvested and suspended in labeling buffer [50 mM Mops and 60 mM NaCl (PH7.5)]. Spin labels were added (to a final concentration of 20 μM MTSL or 10 μM MAL6) and incubated 2 hours at room temperature with shaking, and the cells were washed twice with reaction buffer containing 0.05% Tween-20 and once with reaction buffer alone. […] For ESR analysis, 10^10 cells were suspended in 100 μl of 0.01 M NaHPO4 (pH 6.9) containing 0.4% glucose. X-band spectra of MTSL-labeled KDF541/pFepAE280C (top), KDF541/pITS449 (fepA^+; center), or KDF541 (fepA; bottom) were recorded on a Bruker EMX spectrometer, operating at 9.8 GHz with a total scan range of 150 G and 100-kHz modulation frequency, at 4° C. in a quartz flat cell. Peaks a and b show the position of strongly and weakly immobilized spin labels, respectively. Indicated at (B) are [^125I]-labeled protein A Western blots with anti-MAL6 sera. MAL6 was coupled to bovine serum albumin (BSA) and ovalbumin (OVA). New Zealand White rabbits were immunized with BSA-MAL6 conjugates [100 μg/week for 1 month (29)], and polyclonal serum was collected in week 5 and assayed for antigen specificity by enzyme-linked immunosorbent assay (30) and Western blots against BSA, BSA-MAL6, OVA, and OVA-MAL6 (lanes 1 through 4, respectively). Lysates (5×10^7 cells) of KDF541, KDF541/pITS449, and KDF541/pFepAE280C, previously labeled with MAL6, as described above, were reacted with the anti-MAL6 polyclonal serum (lanes 5 through 7, respectively). Arrows indicate the positions of (top to bottom) FepAE280C-MAL6, BSA-MAL6, BSA, and OVA-MAL6.
# KDF541/pFepAE280C was grown, spin-labeled, and prepared as described in FIG. 1. Signal-averaged X-band spectra (six field sweeps collected over an 8-minute period) of spin-labeled bacteria were recorded at 4° C. as indicated at (A) and again after warming the flat cell to 37° C. [indicated at (B) (31)]. A fresh aliquot of cells from the same labeling reaction was suspended in saturating ferric enterobactin (300 μM) at 4° C. as indicated at (C), the sample was warned to 37° C., and spectra were recorded after 5 minutes, as indicated at (D), and 15 minutes, as indicated at (E) (midpoints of the signal-average measurements). The bacteria were then cooled again to 4° C. for 30 minutes, and spectra were recorded, as indicated at (F). Each of the spectra was double-integrated, as indicated at (G), from 3405 to 3555 G to determine the total number of MTSL spins (O) and from 3443 to 3477 G to determine the spins derived from the strongly immobilized (a) and weakly immobilized (b) peaks (●).
# KDF541/pFepAE280C was grown, spin-labeled, and prepared as described in FIG. 1. Singla-averaged X-band spectra (six field sweeps collected over an 8-minute period) of spin-labeled bacteria were recorded in the presence of saturating levels of colicin B (10 μM) at 4° C., as indicated at (A). The sample was warmed to 37° C. and analyzed after 5 minutes, as indicated at (B), 15 minutes, as indicated at (C), and 75 minutes, as indicated at (D) (midpoints of signal average measurement before recooling to 4° C., as indicated at (E). The same strain was grown in minimal media and starved for glucose for 2 hours to deplete its energy stores, spin-labeled, and exposed to colicin B (10 μM) at 37° C. for 30 minutes, as indicated at (F). The spectra were double-integrated, as indicated at (G), as described in FIG. 2.
# KDF541/pFepAE280C was grown, spin-labeled, and prepared as described in FIG. 1.
# [1] = ferric enterobactin in excess, 37° C.
# T1 sequence (P05825 23-746 E302C): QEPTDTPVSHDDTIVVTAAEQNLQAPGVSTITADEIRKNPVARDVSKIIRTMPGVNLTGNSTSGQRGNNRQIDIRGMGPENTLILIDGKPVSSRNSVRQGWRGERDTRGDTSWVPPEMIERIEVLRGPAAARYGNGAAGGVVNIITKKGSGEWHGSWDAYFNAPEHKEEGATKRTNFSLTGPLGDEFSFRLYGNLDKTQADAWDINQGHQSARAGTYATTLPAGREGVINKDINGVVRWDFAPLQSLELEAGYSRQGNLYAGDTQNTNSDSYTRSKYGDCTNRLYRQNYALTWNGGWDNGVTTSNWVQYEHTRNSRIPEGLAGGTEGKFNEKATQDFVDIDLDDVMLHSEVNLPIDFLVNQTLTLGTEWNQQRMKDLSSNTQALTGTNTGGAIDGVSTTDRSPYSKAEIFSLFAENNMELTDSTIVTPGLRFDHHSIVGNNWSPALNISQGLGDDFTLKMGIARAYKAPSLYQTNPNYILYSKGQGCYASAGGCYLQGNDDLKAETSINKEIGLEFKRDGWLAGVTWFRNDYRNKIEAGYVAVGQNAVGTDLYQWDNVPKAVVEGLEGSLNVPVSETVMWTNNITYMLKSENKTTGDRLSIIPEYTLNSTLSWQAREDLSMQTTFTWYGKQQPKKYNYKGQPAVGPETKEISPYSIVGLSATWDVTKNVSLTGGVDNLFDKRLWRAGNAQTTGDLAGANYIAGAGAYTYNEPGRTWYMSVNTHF
Molecule,"period over which the burst of spin-label motion peaked and receded (ferric enterobactin 300 μM, 37° C., continuous monitoring at 3472 G)","effect on MTSL mobility (weakly immobilized peak at 3472 G) monitored over time (ferric enterobactin 300 μM, KDF541/pFepAE280C, glucose present, warmed from 4° C. to 37° C.)",time for first surge in motion to decay [1],time for first surge in motion to peak [1],time over which immobilization of MTSL at residue 280 became more severe (cells with bound colicin warmed to 37° C.),"effect on MTSL mobility during continual incubation at 4° C. (colicin bound, 4° C., over the course of 1 hour)","effect on MTSL mobility in signal-averaged X-band spectra (saturating colicin B (10 μM), 37° C.)"
O=C(N[C@H]1COC(=O)[C@@H](NC(=O)c2cccc([O-])c2[O-])COC(=O)[C@@H](NC(=O)c2cccc([O-])c2[O-])COC1=O)c1cccc([O-])c1[O-].[Fe+3] [ferric enterobactin],5 min,stimulated a burst of motion,140 s,140 s,,,
colicin B,,,,,30 min,did not take place,progressively eliminated weakly immobilized spins
